Laboratory results taken from patent publication US12129240B2, “Sulfonium salt, photoacid generator, curable composition and resist composition” (SAN-APRO LTD., priority 2019, dated 2024).

Experiment: Evaluation of solubility in solvent
Type: physicochemical
Conditions: room temperature (25° C.), highest concentration completely dissolved; for Solubility Solvent-4: propylene carbonate; for Solubility Solvent-3: γ-butyrolactone

| SMILES | Solubility Solvent-4 [wt %] | Solubility Solvent-3 [wt %] |
| --- | --- | --- |
| O=c1c2ccccc2sc2ccc(Sc3ccc([S+](c4ccccc4)c4ccc5sc6ccccc6c(=O)c5c4)cc3)cc12 (stereo not drawn) [Comparative Example 2, reference compound] | 2 | 7 |
| O=c1c2ccccc2sc2ccc(Sc3ccc([S+](c4ccccc4)c4ccc5sc6ccccc6c(=O)c5c4)cc3)cc12 (stereo not drawn) [Comparative Example 3, reference compound] | 32 | 23 |
| O=c1c2ccccc2sc2ccc(Sc3ccc([S+](c4ccccc4)c4ccc5sc6ccccc6c(=O)c5c4)cc3)cc12 (stereo not drawn) [Comparative Example 4, reference compound] | 3 | 9 |
| Cc1cccc([S+](c2ccc3sc4ccccc4c(=O)c3c2)c2ccc(Sc3ccc4sc5ccccc5c(=O)c4c3)cc2C)c1 (stereo not drawn) [Example 4, [2-methyl-4-(2-thioxanthonylthio)phenyl](3-methylphenyl) (2-thioxanthonyl)sulfonium Hexafluorophosphate] | 12 | 12 |
| Cc1cccc([S+](c2ccc3sc4ccccc4c(=O)c3c2)c2ccc(Sc3ccc4sc5ccccc5c(=O)c4c3)cc2C)c1 (stereo not drawn) [Example 6, [2-methyl-4-(2-thioxanthonylthio)phenyl](3-methylphenyl) (2-thioxanthonyl)sulfonium tris(pentafluoroethyl) Trifluorophosphate] | 32 | 23 |
| Cc1cccc([S+](c2ccc3sc4ccccc4c(=O)c3c2)c2ccc(Sc3ccc4sc5ccccc5c(=O)c4c3)cc2C)c1 (stereo not drawn) [Example 7, [2-methyl-4-(2-thioxanthonylthio)phenyl](3-methylphenyl) (2-thioxanthonyl)sulfonium Hexafluoroantimonate] | 15 | 15 |
| COc1cccc([S+](c2ccc3sc4ccccc4c(=O)c3c2)c2ccc(Sc3ccc4sc5ccccc5c(=O)c4c3)cc2OC)c1 (stereo not drawn) [Example 12, [2-methoxy-4-(2-thioxanthonylthio)phenyl](3-methoxyphenyl) (2-thioxanthonyl)sulfonium Hexafluorophosphate] | 21 | 10 |
| COc1cccc([S+](c2ccc3sc4ccccc4c(=O)c3c2)c2ccc(Sc3ccc4sc5ccccc5c(=O)c4c3)cc2OC)c1 (stereo not drawn) [Example 14, [2-methoxy-4-(2-thioxanthonylthio)phenyl](3-methoxyphenyl) (2-thioxanthonyl)sulfonium tris(pentafluoroethyl) Trifluorophosphate] | 32 | 31 |
| COc1cccc([S+](c2ccc3sc4ccccc4c(=O)c3c2)c2ccc(Sc3ccc4sc5ccccc5c(=O)c4c3)cc2OC)c1 (stereo not drawn) [Example 15, [2-methoxy-4-(2-thioxanthonylthio)phenyl](3-methoxyphenyl) (2-thioxanthonyl)sulfonium Hexafluoroantimonate] | 20 | 18 |
| CC(C)(C)c1cccc([S+](c2ccc3sc4ccccc4c(=O)c3c2)c2ccc(Sc3ccc4sc5ccccc5c(=O)c4c3)cc2C(C)(C)C)c1 (stereo not drawn) [Example 20, [2-tert-butyl-4-(2-thioxanthonylthio)phenyl](3-tert-butylphenyl) (2-thioxanthonyl)sulfonium Hexafluorophosphate] | 27 | 25 |
| CC(C)(C)c1cccc([S+](c2ccc3sc4ccccc4c(=O)c3c2)c2ccc(Sc3ccc4sc5ccccc5c(=O)c4c3)cc2C(C)(C)C)c1 (stereo not drawn) [Example 22, [2-tert-butyl-4-(2-thioxanthonylthio)phenyl](3-tert-butylphenyl) (2-thioxanthonyl)sulfonium tris(pentafluoroethyl) Trifluorophosphate] | 33 | 38 |
| CC(C)(C)c1cccc([S+](c2ccc3sc4ccccc4c(=O)c3c2)c2ccc(Sc3ccc4sc5ccccc5c(=O)c4c3)cc2C(C)(C)C)c1 (stereo not drawn) [Example 23, [2-tert-butyl-4-(2-thioxanthonylthio)phenyl](3-tert-butylphenyl) (2-thioxanthonyl)sulfonium Hexafluoroantimonate] | 24 | 25 |
| Cc1cc(C)cc([S+](c2ccc3sc4ccccc4c(=O)c3c2)c2c(C)cc(Sc3ccc4sc5ccccc5c(=O)c4c3)cc2C)c1 (stereo not drawn) [Example 28, [2,6-dimethyl-4-(2-thioxanthonylthio)phenyl](3,5-dimethylphenyl) (2-thioxanthonyl)sulfonium Hexafluorophosphate] | 25 | 30 |
| Cc1cc(C)cc([S+](c2ccc3sc4ccccc4c(=O)c3c2)c2c(C)cc(Sc3ccc4sc5ccccc5c(=O)c4c3)cc2C)c1 (stereo not drawn) [Example 30, [2,6-dimethyl-4-(2-thioxanthonylthio)phenyl](3,5-dimethylphenyl) (2-thioxanthonyl)sulfonium tris(pentafluoroethyl) Trifluorophosphate] | 33 | 40 |

The next lines start with the values.

| Solubility Solvent-4 [wt %] | Solubility Solvent-3 [wt %] | SMILES |
| --- | --- | --- |
| 23 | 25 | Cc1cc(C)cc([S+](c2ccc3sc4ccccc4c(=O)c3c2)c2c(C)cc(Sc3ccc4sc5ccccc5c(=O)c4c3)cc2C)c1 (stereo not drawn) [Example 31, [2,6-dimethyl-4-(2-thioxanthonylthio)phenyl](3,5-dimethylphenyl) (2-thioxanthonyl)sulfonium Hexafluoroantimonate] |
| 25 | 25 | Cc1ccc(C)c([S+](c2ccc3sc4ccccc4c(=O)c3c2)c2cc(C)c(Sc3ccc4sc5ccccc5c(=O)c4c3)cc2C)c1 (stereo not drawn) [Example 36, [2,5-dimethyl-4-(2-thioxanthonylthio)phenyl](2,5-dimethylphenyl) (2-thioxanthonyl)sulfonium Potassium Hexafluorophosphate] |
| 33 | 40 | Cc1ccc(C)c([S+](c2ccc3sc4ccccc4c(=O)c3c2)c2cc(C)c(Sc3ccc4sc5ccccc5c(=O)c4c3)cc2C)c1 (stereo not drawn) [Example 38, [2,5-dimethyl-4-(2-thioxanthonylthio)phenyl](2,5-dimethylphenyl) (2-thioxanthonyl)sulfonium tris(pentafluoroethyl) Trifluorophosphate] |
| 23 | 29 | Cc1ccc(C)c([S+](c2ccc3sc4ccccc4c(=O)c3c2)c2cc(C)c(Sc3ccc4sc5ccccc5c(=O)c4c3)cc2C)c1 (stereo not drawn) [Example 39, [2,5-dimethyl-4-(2-thioxanthonylthio)phenyl](2,5-dimethylphenyl) (2-thioxanthonyl)sulfonium Hexafluoroantimonate] |
| 31 | 33 | Cc1cc([S+](c2ccc3sc4ccccc4c(=O)c3c2)c2cc(C(C)(C)C)ccc2C)c(C(C)(C)C)cc1Sc1ccc2sc3ccccc3c(=O)c2c1 (stereo not drawn) [Example 44, [2-tert-butyl-5-methyl-4-(2-thioxanthonylthio)phenyl](5-tert-butyl-2-methylphenyl) (2-thioxanthonyl)sulfonium Hexafluorophosphate] |
| 33 | 49 | Cc1cc([S+](c2ccc3sc4ccccc4c(=O)c3c2)c2cc(C(C)(C)C)ccc2C)c(C(C)(C)C)cc1Sc1ccc2sc3ccccc3c(=O)c2c1 (stereo not drawn) [Example 46, [2-tert-butyl-5-methyl-4-(2-thioxanthonylthio)phenyl](5-tert-butyl-2-methylphenyl) (2-thioxanthonyl)sulfonium tris(pentafluoroethyl) Trifluorophosphate] |
| 30 | 33 | Cc1cc([S+](c2ccc3sc4ccccc4c(=O)c3c2)c2cc(C(C)(C)C)ccc2C)c(C(C)(C)C)cc1Sc1ccc2sc3ccccc3c(=O)c2c1 (stereo not drawn) [Example 47, [2-tert-butyl-5-methyl-4-(2-thioxanthonylthio)phenyl](5-tert-butyl-2-methylphenyl) (2-thioxanthonyl)sulfonium Hexafluoroantimonate] |
| 38 | 45 | Cc1ccc(C)c([S+](c2ccc3sc4ccccc4c(=O)c3c2)c2cc(C)c(Oc3ccc4sc5ccccc5c(=O)c4c3)cc2C)c1 (stereo not drawn) [Example 49, [2,5-dimethyl-4-(2-thioxanthonyloxy)phenyl](2,5-dimethylphenyl) (2-thioxanthonyl)sulfonium tris(pentafluoroethyl) Trifluorophosphate] |
| 30 | 40 | Cc1ccc(C)c([S+](c2ccc3sc4ccccc4c(=O)c3c2)c2cc(C)c([S+]([O-])c3ccc4sc5ccccc5c(=O)c4c3)cc2C)c1 (stereo not drawn) [Example 50, [2,5-dimethyl-4-(2-thioxanthonylsulfinyl)phenyl](2,5-dimethylphenyl) (2-thioxanthonyl)sulfonium tris(pentafluoroethyl) Trifluorophosphate] |
| 32 | 40 | Cc1ccc(C)c([S+](c2ccc3sc4ccccc4c(=O)c3c2)c2cc(C)c(S(=O)(=O)c3ccc4sc5ccccc5c(=O)c4c3)cc2C)c1 (stereo not drawn) [Example 51, [2,5-dimethyl-4-(2-thioxanthonylsulfonyl)phenyl](2,5-dimethylphenyl) (2-thioxanthonyl)sulfonium tris(pentafluoroethyl) Trifluorophosphate] |
